Measured values: ChEMBL document CHEMBL1201861, “Genomics of Drug Sensitity in Cancer screening data, Wellcome Trust Sanger Institute”

Tests used:
Experiment in all cases: cells
NCI-H1993 = format: functional, cell-based, Homo sapiens; conditions: Homo sapiens, NCI-H1993;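 also: growth inhibition of the cancer cell line, assessed with a cell viability assay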
Description: SANGER: Inhibition of human NCI-H1993 cell growth in a cell viability assay.

NCI-H2342 = format: functional, cell-based; conditions: Homo sapiens;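 also: growth inhibition of the cancer cell line, determined with a cell viability assay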
Description: SANGER: Inhibition of human NCI-H2342 cell growth in a cell viability assay.

COR-L88 = format: functional, cell-based; conditions: Homo sapiens;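 also: growth inhibition of COR-L88 cells, read out with a cell viability assay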
Description: SANGER: Inhibition of human COR-L88 cell growth in a cell viability assay.

HuCCT-1 = format: functional, cell-based, Homo sapiens, HuCCT1; conditions: Homo sapiens, HuCCT-1;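 also: growth inhibition of HuCCT-1 cells, read out by a cell viability assay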
Description: SANGER: Inhibition of human HuCCT1 cell growth in a cell viability assay.

NCI-H23 = format: functional, cell-based, Homo sapiens; conditions: Homo sapiens, NCI-H23
Description: SANGER: Inhibition of human NCI-H23 cell growth in a cell viability assay.

SJSA-1 = format: functional, cell-based, Homo sapiens; conditions: Homo sapiens, SJSA-1;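 also: growth inhibition of human SJSA-1 cells, read out through a cell viability measurement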
Description: SANGER: Inhibition of human SJSA-1 cell growth in a cell viability assay.

PSN1 = format: functional, cell-based, Homo sapiens; conditions: Homo sapiens, PSN1;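 also: suppression of growth of human PSN1 cells, read out by a cell viability assay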
Description: SANGER: Inhibition of human PSN1 cell growth in a cell viability assay.

SBC-5 = format: functional, cell-based, Homo sapiens; conditions: Homo sapiens, SBC-5;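 also: cell viability assay read-out, IC50 is the concentration that inhibits growth of the cells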
Description: SANGER: Inhibition of human SBC-5 cell growth in a cell viability assay.

KYSE-140 = format: functional, cell-based, Homo sapiens; conditions: Homo sapiens, KYSE-140;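 also: cell viability assay measuring growth inhibition in human KYSE-140 cells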
Description: SANGER: Inhibition of human KYSE-140 cell growth in a cell viability assay.

ABC-1 = format: functional, cell-based, Homo sapiens; conditions: Homo sapiens, ABC-1;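 also: growth inhibition of human ABC-1 cells, read out by a cell viability assay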
Description: SANGER: Inhibition of human ABC-1 cell growth in a cell viability assay.

LCLC-103H cell line = format: functional, cell-based, Homo sapiens; conditions: Homo sapiens, LCLC-103H
Description: SANGER: Inhibition of human LCLC-103H cell growth in a cell viability assay.

CaR-1 = format: functional, cell-based, Homo sapiens; conditions: Homo sapiens, CaR-1;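 also: growth inhibition of human CaR-1 cancer cells, read out with a cell viability assay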
Description: SANGER: Inhibition of human CaR-1 cell growth in a cell viability assay.

COLO-668 = format: functional, cell-based, Homo sapiens; conditions: Homo sapiens, COLO-668
Description: SANGER: Inhibition of human COLO-668 cell growth in a cell viability assay.

CTV-1 = format: functional, cell-based; conditions: Homo sapiens;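 also: growth inhibition of the cell line, read out with a cell viability assay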
Description: SANGER: Inhibition of human CTV-1 cell growth in a cell viability assay.

G-401 = format: functional, cell-based, Homo sapiens; conditions: Homo sapiens, G-401
Description: SANGER: Inhibition of human G-401 cell growth in a cell viability assay.

MC116 = format: functional, cell-based; conditions: Homo sapiens;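 also: growth inhibition of MC116 cells, read out with a cell viability assay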
Description: SANGER: Inhibition of human MC116 cell growth in a cell viability assay.

WM-115 = format: functional, cell-based, Homo sapiens; conditions: Homo sapiens, WM-115
Description: SANGER: Inhibition of human WM-115 cell growth in a cell viability assay.

A498 = format: functional, cell-based, Homo sapiens; conditions: Homo sapiens, A498;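 also: growth inhibition of human A498 cells, read out with a cell viability assay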
Description: SANGER: Inhibition of human A498 cell growth in a cell viability assay.

CTB-1 = format: functional, cell-based; conditions: Homo sapiens
Description: SANGER: Inhibition of human CTB-1 cell growth in a cell viability assay.

KNS-81-FD = format: functional, cell-based, Homo sapiens; conditions: Homo sapiens, KNS-81-FD;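 also: growth inhibition of KNS-81-FD cells, read out with a cell viability assay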
Description: SANGER: Inhibition of human KNS-81-FD cell growth in a cell viability assay.

A 172 = format: functional, cell-based, Homo sapiens; conditions: Homo sapiens, A 172;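 also: growth inhibition of A172 cells, measured with a cell viability readout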
Description: SANGER: Inhibition of human A172 cell growth in a cell viability assay.

SHP77 = format: functional, cell-based, Homo sapiens, SHP-77; conditions: Homo sapiens, SHP77;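 also: growth inhibition of human SHP-77 cells measured by a cell viability assay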
Description: SANGER: Inhibition of human SHP-77 cell growth in a cell viability assay.

NB69 = format: functional, cell-based, Homo sapiens; conditions: Homo sapiens, NB69;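 also: growth inhibition of NB69 cells, determined by a cell viability assay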
Description: SANGER: Inhibition of human NB69 cell growth in a cell viability assay.

NCI-H650 = format: functional, cell-based, Homo sapiens; conditions: Homo sapiens, NCI-H650;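 also: growth inhibition of NCI-H650 cells, read out by a viability assay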
Description: SANGER: Inhibition of human NCI-H650 cell growth in a cell viability assay.

OAW-28 = format: functional, cell-based, Homo sapiens; conditions: Homo sapiens, OAW-28;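 also: growth inhibition of OAW-28 cells, read out with a cell viability assay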
Description: SANGER: Inhibition of human OAW-28 cell growth in a cell viability assay.

HCC 2998 = format: functional, cell-based, Homo sapiens; conditions: Homo sapiens, HCC 2998;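 also: growth inhibition of human HCC2998 cells, measured with a cell viability read-out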
Description: SANGER: Inhibition of human HCC2998 cell growth in a cell viability assay.

EGI-1 = format: functional, cell-based, Homo sapiens; conditions: Homo sapiens, EGI-1;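 also: cell viability readout used to gauge growth inhibition of EGI-1 cells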
Description: SANGER: Inhibition of human EGI-1 cell growth in a cell viability assay.

NB12 = format: functional, cell-based, Homo sapiens; conditions: Homo sapiens, NB12;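 also: growth inhibition of human NB12 cells, read out by a cell viability assay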
Description: SANGER: Inhibition of human NB12 cell growth in a cell viability assay.

NCI-H1693 = format: functional, cell-based, Homo sapiens; conditions: Homo sapiens, NCI-H1693;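 also: growth inhibition of the human cell line, read out with a cell viability assay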
Description: SANGER: Inhibition of human NCI-H1693 cell growth in a cell viability assay.

MDA-MB-415 = format: functional, cell-based; conditions: Homo sapiens
8505C = format: functional, cell-based, Homo sapiens; conditions: Homo sapiens, 8505C
Description: SANGER: Inhibition of human 8505C cell growth in a cell viability assay.

NCI-H1755 = format: functional, cell-based, Homo sapiens; conditions: Homo sapiens, NCI-H1755;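 also: cell viability readout used to measure growth inhibition of NCI-H1755 cells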
Description: SANGER: Inhibition of human NCI-H1755 cell growth in a cell viability assay.

HT-1376 = format: functional, cell-based, Homo sapiens; conditions: Homo sapiens, HT-1376
Description: SANGER: Inhibition of human HT-1376 cell growth in a cell viability assay.

KM12 = format: functional, cell-based, Homo sapiens; conditions: Homo sapiens, KM12;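 also: KM12 cell growth inhibition, read out with a cell viability assay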
Description: SANGER: Inhibition of human KM12 cell growth in a cell viability assay.

SCC-15 = format: functional, cell-based, Homo sapiens; conditions: Homo sapiens, SCC-15;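 also: growth inhibition of SCC-15 cells, read out with a cell viability assay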
Description: SANGER: Inhibition of human SCC-15 cell growth in a cell viability assay.

A673 = format: functional, cell-based, Homo sapiens; conditions: Homo sapiens, A673;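 also: growth inhibition of human A673 cells, read out through a cell viability assay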
Description: SANGER: Inhibition of human A673 cell growth in a cell viability assay.

CAL-33 = format: functional, cell-based, Homo sapiens; conditions: Homo sapiens, CAL-33;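 also: growth inhibition of CAL-33 cells, read out with a cell viability assay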
Description: SANGER: Inhibition of human CAL-33 cell growth in a cell viability assay.

KGN = format: functional, cell-based, Homo sapiens; conditions: Homo sapiens, KGN;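 also: growth inhibition of KGN cells, read out with a cell viability assay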
Description: SANGER: Inhibition of human KGN cell growth in a cell viability assay.

ChaGo-K-1 = format: functional, cell-based; conditions: Homo sapiens;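 also: growth inhibition of ChaGo-K-1 cells, read out with a cell viability assay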
Description: SANGER: Inhibition of human ChaGo-K-1 cell growth in a cell viability assay.

HCC1806 = format: functional, cell-based, Homo sapiens; conditions: Homo sapiens, HCC1806;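 also: growth inhibition of the cancer cell line, determined with a cell viability assay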
Description: SANGER: Inhibition of human HCC1806 cell growth in a cell viability assay.

BV-173 = format: functional, cell-based; conditions: Homo sapiens
Description: SANGER: Inhibition of human BV-173 cell growth in a cell viability assay.

HT1197 = format: functional, cell-based, Homo sapiens, HT-1197; conditions: Homo sapiens, HT1197
Description: SANGER: Inhibition of human HT-1197 cell growth in a cell viability assay.

NCI-H1563 = format: functional, cell-based, Homo sapiens; conditions: Homo sapiens, NCI-H1563;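 also: growth inhibition of human NCI-H1563 cells, read out with a cell viability assay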
Description: SANGER: Inhibition of human NCI-H1563 cell growth in a cell viability assay.

KE-37 = format: functional, cell-based; conditions: Homo sapiens;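 also: growth inhibition of KE-37 cells, read out with a cell viability assay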
Description: SANGER: Inhibition of human KE-37 cell growth in a cell viability assay.

CAL-72 = format: functional, cell-based, Homo sapiens; conditions: Homo sapiens, CAL-72;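 also: cell viability assay measuring inhibition of proliferation in the CAL-72 cell line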
Description: SANGER: Inhibition of human CAL-72 cell growth in a cell viability assay.

A101D = format: functional, cell-based, Homo sapiens; conditions: Homo sapiens, A101D;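 also: growth inhibition of the cell line, measured with a viability assay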
Description: SANGER: Inhibition of human A101D cell growth in a cell viability assay.

OAW-42 = format: functional, cell-based, Homo sapiens; conditions: Homo sapiens, OAW-42;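 also: growth inhibition of OAW-42 cells, read out with a cell viability assay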
Description: SANGER: Inhibition of human OAW-42 cell growth in a cell viability assay.

LU-99A = format: functional, cell-based, Homo sapiens; conditions: Homo sapiens, LU-99A;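 also: growth inhibition of LU-99A cells, read out with a cell viability assay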
Description: SANGER: Inhibition of human LU-99A cell growth in a cell viability assay.

C8166 = format: functional, cell-based; conditions: Homo sapiens;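 also: growth inhibition of human C8166 cells measured by a cell viability assay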
Description: SANGER: Inhibition of human C8166 cell growth in a cell viability assay.

Huh-7 = format: functional, cell-based, Homo sapiens; conditions: Homo sapiens, Huh-7;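 also: HuH-7 cell growth inhibition, read out with a cell viability assay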
Description: SANGER: Inhibition of human HuH-7 cell growth in a cell viability assay.

SMILES: Cc1cnc(-c2cnc(NCCNc3ccc(C#N)cn3)nc2-c2ccc(Cl)cc2Cl)[nH]1 [LADUVIGLUSIB]
- IC50 (NCI-H1993): > 2.56 µM
- IC50 (NCI-H2342): > 2.56 µM
- IC50 (COR-L88): > 2.56 µM
- IC50 (HuCCT-1): > 2.56 µM
- IC50 (NCI-H23): > 2.56 µM
- IC50 (SJSA-1): > 2.56 µM
- IC50 (PSN1): > 2.56 µM
- IC50 (SBC-5): > 2.56 µM
- IC50 (KYSE-140): > 2.56 µM
- IC50 (ABC-1): > 2.56 µM
- IC50 (LCLC-103H cell line): > 2.56 µM
- IC50 (CaR-1): > 2.56 µM
- IC50 (COLO-668): > 2.56 µM
- IC50 (CTV-1): > 2.56 µM
- IC50 (G-401): > 2.56 µM
- IC50 (MC116): > 2.56 µM
- IC50 (WM-115): > 2.56 µM
- IC50 (A498): 1.3 µM
- IC50 (CTB-1): > 2.56 µM
- IC50 (KNS-81-FD): > 2.56 µM
- IC50 (A 172): > 2.56 µM
- IC50 (SHP77): > 2.56 µM
- IC50 (NB69): > 2.56 µM
- IC50 (NCI-H650): > 2.56 µM
- IC50 (OAW-28): > 2.56 µM
- IC50 (HCC 2998): > 2.56 µM
- IC50 (EGI-1): > 2.56 µM
- IC50 (NB12): > 2.56 µM
- IC50 (NCI-H1693): > 2.56 µM
- IC50 (MDA-MB-415): > 2.56 µM
- IC50 (8505C): > 2.56 µM
- IC50 (NCI-H1755): > 2.56 µM
- IC50 (HT-1376): > 2.56 µM
- IC50 (KM12): > 2.56 µM
- IC50 (SCC-15): > 2.56 µM
- IC50 (A673): > 2.56 µM
- IC50 (CAL-33): > 2.56 µM
- IC50 (KGN): > 2.56 µM
- IC50 (ChaGo-K-1): > 2.56 µM
- IC50 (HCC1806): > 2.56 µM
- IC50 (BV-173): > 2.56 µM
- IC50 (HT1197): > 2.56 µM
- IC50 (NCI-H1563): > 2.56 µM
- IC50 (KE-37): > 2.56 µM
- IC50 (CAL-72): > 2.56 µM
- IC50 (A101D): > 2.56 µM
- IC50 (OAW-42): > 2.56 µM
- IC50 (LU-99A): > 2.56 µM
- IC50 (C8166): > 2.56 µM
- IC50 (Huh-7): > 2.56 µM

SMILES: C[C@]1(O)C[C@@H](c2nc(-c3ccc4ccc(-c5ccccc5)nc4c3)c3c(N)nccn32)C1 [LINSITINIB]
- IC50 (NCI-H1993): > 2.56 µM
- IC50 (NCI-H2342): > 2.56 µM
- IC50 (COR-L88): > 2.56 µM
- IC50 (HuCCT-1): > 2.56 µM
- IC50 (NCI-H23): > 2.56 µM
- IC50 (SJSA-1): 1.04 µM
- IC50 (PSN1): > 2.56 µM
- IC50 (SBC-5): > 2.56 µM
- IC50 (KYSE-140): > 2.56 µM
- IC50 (ABC-1): 0.904 µM
- IC50 (LCLC-103H cell line): > 2.56 µM
- IC50 (CaR-1): > 2.56 µM
- IC50 (COLO-668): 0.847 µM
- IC50 (CTV-1): > 2.56 µM
- IC50 (G-401): 0.182 µM
- IC50 (MC116): > 2.56 µM
- IC50 (WM-115): > 2.56 µM
- IC50 (A498): > 2.56 µM
- IC50 (CTB-1): > 2.56 µM
- IC50 (KNS-81-FD): > 2.56 µM
- IC50 (A 172): > 2.56 µM
- IC50 (SHP77): > 2.56 µM
- IC50 (NB69): 0.583 µM
- IC50 (NCI-H650): 0.214 µM
- IC50 (OAW-28): > 2.56 µM
- IC50 (HCC 2998): 0.883 µM
- IC50 (EGI-1): > 2.56 µM
- IC50 (NB12): > 2.56 µM
- IC50 (NCI-H1693): > 2.56 µM
- IC50 (MDA-MB-415): > 2.56 µM
- IC50 (8505C): > 2.56 µM
- IC50 (NCI-H1755): > 2.56 µM
- IC50 (HT-1376): > 2.56 µM
- IC50 (KM12): > 2.56 µM
- IC50 (SCC-15): > 2.56 µM
- IC50 (A673): > 2.56 µM
- IC50 (CAL-33): > 2.56 µM
- IC50 (KGN): > 2.56 µM
- IC50 (ChaGo-K-1): > 2.56 µM
- IC50 (HCC1806): > 2.56 µM
- IC50 (BV-173): > 2.56 µM
- IC50 (HT1197): > 2.56 µM
- IC50 (NCI-H1563): > 2.56 µM
- IC50 (KE-37): > 2.56 µM
- IC50 (CAL-72): > 2.56 µM
- IC50 (A101D): > 2.56 µM
- IC50 (OAW-42): > 2.56 µM
- IC50 (LU-99A): > 2.56 µM
- IC50 (C8166): > 2.56 µM
- IC50 (Huh-7): 1.6 µM

SMILES: C=CCc1cccc(/C=N/NC(=O)CN2CCN(Cc3ccccc3)CC2)c1O [PAC-1]
- IC50 (NCI-H1993): > 2.56 µM
- IC50 (NCI-H2342): > 2.56 µM
- IC50 (COR-L88): > 2.56 µM
- IC50 (HuCCT-1): 1.46 µM
- IC50 (NCI-H23): > 2.56 µM
- IC50 (SJSA-1): 2.32 µM
- IC50 (PSN1): > 2.56 µM
- IC50 (SBC-5): > 2.56 µM
- IC50 (KYSE-140): > 2.56 µM
- IC50 (ABC-1): > 2.56 µM
- IC50 (LCLC-103H cell line): 1.12 µM
- IC50 (CaR-1): > 2.56 µM
- IC50 (COLO-668): > 2.56 µM
- IC50 (CTV-1): 1.96 µM
- IC50 (G-401): 1.01 µM
- IC50 (MC116): 1.21 µM
- IC50 (WM-115): > 2.56 µM
- IC50 (A498): > 2.56 µM
- IC50 (CTB-1): 1.44 µM
- IC50 (KNS-81-FD): > 2.56 µM
- IC50 (A 172): > 2.56 µM
- IC50 (SHP77): > 2.56 µM
- IC50 (NB69): > 2.56 µM
- IC50 (NCI-H650): > 2.56 µM
- IC50 (OAW-28): > 2.56 µM
- IC50 (HCC 2998): 1.18 µM
- IC50 (EGI-1): > 2.56 µM
- IC50 (NB12): > 2.56 µM
- IC50 (NCI-H1693): > 2.56 µM
- IC50 (MDA-MB-415): > 2.56 µM
- IC50 (8505C): > 2.56 µM
- IC50 (NCI-H1755): > 2.56 µM
- IC50 (HT-1376): > 2.56 µM
- IC50 (KM12): > 2.56 µM
- IC50 (SCC-15): > 2.56 µM
- IC50 (A673): > 2.56 µM
- IC50 (CAL-33): > 2.56 µM
- IC50 (KGN): 2.15 µM
- IC50 (ChaGo-K-1): > 2.56 µM
- IC50 (HCC1806): > 2.56 µM
- IC50 (BV-173): > 2.56 µM
- IC50 (HT1197): > 2.56 µM
- IC50 (NCI-H1563): > 2.56 µM
- IC50 (KE-37): 0.215 µM
- IC50 (CAL-72): > 2.56 µM
- IC50 (A101D): > 2.56 µM
- IC50 (OAW-42): > 2.56 µM
- IC50 (LU-99A): > 2.56 µM
- IC50 (C8166): 1.22 µM
- IC50 (Huh-7): > 2.56 µM
